Results as given in ChEMBL document CHEMBL1139020, “Aryl O- and S-galactosides and lactosides as specific inhibitors of human galectins-1 and -3: role of electrostatic potential at O-3” (Bioorg Med Chem Lett, 2006).

Columns and labels:
[1] = target: Galectin-1 (Homo sapiens) (UniProt P09382); experiment: Inhibition of Galectin1
[2] = target: Galectin-3 (Homo sapiens) (UniProt P17931); experiment: Inhibition of Galectin3
Chain of Galectin-3 (Homo sapiens) (P17931 whole entry): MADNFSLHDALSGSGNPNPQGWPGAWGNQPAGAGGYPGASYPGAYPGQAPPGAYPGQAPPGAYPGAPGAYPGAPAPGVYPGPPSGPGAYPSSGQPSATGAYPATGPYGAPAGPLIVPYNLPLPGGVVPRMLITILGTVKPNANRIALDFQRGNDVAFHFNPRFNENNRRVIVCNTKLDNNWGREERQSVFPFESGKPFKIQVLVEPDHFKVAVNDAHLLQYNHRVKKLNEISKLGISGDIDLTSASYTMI

Chain of Galectin-1 (Homo sapiens) (P09382 whole entry): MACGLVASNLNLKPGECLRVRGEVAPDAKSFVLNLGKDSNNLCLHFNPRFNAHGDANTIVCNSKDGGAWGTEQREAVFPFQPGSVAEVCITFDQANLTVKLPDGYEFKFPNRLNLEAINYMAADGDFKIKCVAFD

CC(=O)OC[C@H]1O[C@@H](Sc2ccc([N+](=O)[O-])cc2)[C@H](OC(C)=O)[C@@H](OC(C)=O)[C@H]1O
Activity [1]: 2.5 mM | Activity [2]: > 5 mM

COc1ccc(S[C@@H]2O[C@H](COC(C)=O)[C@H](O)[C@H](OC(C)=O)[C@H]2OC(C)=O)cc1
Activity [1]: > 5 mM | Activity [2]: 2.5 mM

CC(=O)OC[C@H]1O[C@@H](Sc2ccc3ccccc3c2)[C@H](OC(C)=O)[C@@H](OC(C)=O)[C@H]1O
Activity [1]: 5 mM | Activity [2]: 5 mM

CC(=O)OC[C@H]1O[C@@H](Oc2ccccc2[N+](=O)[O-])[C@H](OC(C)=O)[C@@H](OC(C)=O)[C@@H]1O[C@@H]1O[C@H](CO)[C@H](O)[C@H](O)[C@H]1O
Activity [1]: 0.08 mM | Activity [2]: 0.625 mM

CC(=O)OC[C@H]1O[C@@H](Oc2ccccc2[N+](=O)[O-])[C@H](OC(C)=O)[C@@H](OC(C)=O)[C@H]1O
Activity [1]: > 5 mM | Activity [2]: > 5 mM

CC(=O)OC[C@H]1O[C@@H](Sc2ccc3ccccc3c2)[C@H](OC(C)=O)[C@@H](OC(C)=O)[C@@H]1O[C@@H]1O[C@H](CO)[C@H](O)[C@H](O)[C@H]1O
Activity [1]: 0.313 mM | Activity [2]: 0.313 mM

CC(=O)OC[C@H]1O[C@@H](Oc2ccc([N+](=O)[O-])cc2)[C@H](OC(C)=O)[C@@H](OC(C)=O)[C@H]1O
Activity [1]: 10 mM | Activity [2]: 10 mM

CC(=O)OC[C@H]1O[C@@H](Sc2ccc(Br)cc2)[C@H](OC(C)=O)[C@@H](OC(C)=O)[C@@H]1O[C@@H]1O[C@H](CO)[C@H](O)[C@H](O)[C@H]1O
Activity [1]: 0.313 mM | Activity [2]: 0.313 mM

O=C[C@H](O)[C@@H](O)[C@@H](O)[C@H](O)CO
Activity [1]: 50 mM | Activity [2]: 50 mM

COc1ccc(S[C@@H]2O[C@H](COC(C)=O)[C@@H](O[C@@H]3O[C@H](CO)[C@H](O)[C@H](O)[C@H]3O)[C@H](OC(C)=O)[C@H]2OC(C)=O)cc1
Activity [1]: 0.313 mM | Activity [2]: 0.313 mM

CC(=O)OC[C@H]1O[C@@H](Sc2ccc([N+](=O)[O-])cc2)[C@H](OC(C)=O)[C@@H](OC(C)=O)[C@@H]1O[C@@H]1O[C@H](CO)[C@H](O)[C@H](O)[C@H]1O
Activity [1]: 0.313 mM | Activity [2]: 0.313 mM

O=S(=O)(c1ccc(Br)cc1)[C@@H]1O[C@H](CO)[C@@H](O[C@@H]2O[C@H](CO)[C@H](O)[C@H](O)[C@H]2O)[C@H](O)[C@H]1O
Activity [1]: 0.313 mM | Activity [2]: 0.313 mM

LACTOSE, ANHYDROUS
Activity [1]: 0.8 mM | Activity [2]: 0.8 mM

COc1ccc(S(=O)(=O)[C@@H]2O[C@H](CO)[C@H](O)[C@H](O)[C@H]2O)cc1
Activity [1]: > 5 mM | Activity [2]: > 5 mM

CC(=O)OC[C@H]1O[C@@H](Oc2ccc([N+](=O)[O-])cc2)[C@H](OC(C)=O)[C@@H](OC(C)=O)[C@@H]1O[C@@H]1O[C@H](CO)[C@H](O)[C@H](O)[C@H]1O
Activity [1]: 0.313 mM | Activity [2]: 0.625 mM

O=S(=O)(c1ccc2ccccc2c1)[C@@H]1O[C@H](CO)[C@@H](O[C@@H]2O[C@H](CO)[C@H](O)[C@H](O)[C@H]2O)[C@H](O)[C@H]1O
Activity [1]: 0.04 mM | Activity [2]: 0.313 mM
